Measured values as given in patent publication US6927236B2, “Coniosulfides and their derivatives, processes for preparing them, and their use as pharmaceuticals” (Aventis Pharma Deutschland GmbH., priority 2001, dated 2005).

Experiments:
[1] = biological target: T1, amyloid precursor protein - FE65 interaction (Homo sapiens, UniProt O00213); assay: Test for the ability to inhibit the APP-FE65 interaction (energy transfer, Eu-cryptate/XL665); type: binding; details: for IC50: biotin-cAPP / GST-PTB2, emission at 665 nm and 615 nm, read-out: Inhibition of the amyloid precursor protein - FE65 interaction, IC50
T1 construct: 1 μL of GST-PTB2 (20 nM in Buffer A) was added
T1 sequence (O00213 542-699 limits assumed): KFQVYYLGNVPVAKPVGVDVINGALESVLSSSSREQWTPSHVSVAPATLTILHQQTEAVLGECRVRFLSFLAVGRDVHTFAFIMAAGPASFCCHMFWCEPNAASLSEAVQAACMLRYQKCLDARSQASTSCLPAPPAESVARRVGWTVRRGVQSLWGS
Description: Test for the Ability to Inhibit the APP-FE65 Interaction
1 μl of the solution to be tested was pipetted, together with 30 μM 32 mer cAPP in Buffer A, into a microtiter plate. 1 μl of biotin-cAPP (10 nM, dissolved in Buffer A) was then added. After incubating for 15 minutes, 1 μL of GST-PTB2 (20 nM in Buffer A) was added and the plate was incubated once again for 15 minutes. 4 μl of antibody mixture (Streptavidin labeled with Eu-cryptate, […] per well; monoclonal anti-GST antibody labeled with XL665, […] in Buffer B) were then added. After 30 minutes at room temperature, the emission signal of the energy transfer, and the europium signal, were measured at 665 nm and 615 nm in a Tecan ultraphotometer after the test solution had been activated with light at a wavelength of 340 nm.
The IC50 values listed in Table 1 were found for the inhibition of the amyloid precursor protein—FE65 interaction.

[2] = Stability in solution (appearance / physicochemical properties)
[3] = Solubility (appearance / physicochemical properties); details: for Solubility in organic solvents: medium-polar and polar organic solvents

Compound	Inhibition of the APP-FE65 interaction (in words) [1]	IC50 [1] [µM]	Stability in neutral and mildly acidic medium [2]	Stability in strongly acid and strongly alkaline solutions [2]	Solubility in organic solvents [3]	Solubility in water [3]
C/C=C/C=C/C1C(C)=CC2CC(C)CCC2C1(C)/C(O)=C1\C(=O)NC(C(C)O)C1=O (centres unmarked) [Coniosetin, coniosetin]	inhibits the APP-FE65 reaction	28	Stable	unstable	soluble	not particularly soluble
CC(=O)NCC(=O)N/C(=C\SC/C=C(\C)CC/C=C(\C)CCC=C(C)C)C(=O)O [Coniosulfide A]	–	2.3	Stable	unstable	soluble	not particularly soluble
CC(=O)NCC(=O)N/C(=C\SC/C=C(\C)CC/C=C(\C)CCC(C)=C(C)C)C(=O)O [Coniosulfide B]	–	2.6	Stable	unstable	soluble	not particularly soluble
CC(=O)NCC(=O)NCC(=O)N/C(=C\SC/C=C(\C)CC/C=C(\C)CCC=C(C)C)C(=O)O [Coniosulfide C]	–	3.8	Stable	unstable	soluble	not particularly soluble
CC(=O)NCC(=O)NCC(=O)N/C(=C\SC/C=C(\C)CC/C=C(\C)CCC(C)=C(C)C)C(=O)O [Coniosulfide D]	–	3.8	Stable	unstable	soluble	not particularly soluble
